Blank lines part the entries; values can stand above or below the compound they belong to.
Legend:
[1] = flash point; cited from earlier work
[2] = n-octanol/water; cited from earlier work
[3] = neat substance; BuAc (reference) = 1.00; cited from earlier work
[4] = Relative evaporation rates; type: physicochemical; conditions: BuAc (reference) = 1.00
Excerpt: (§1) Line C represents the change in fluid volume of a 20% (v/v) solution of diacetone alcohol in water caused by evaporation (a particular embodiment of the inventive differential evaporation antimicrobial composition), while line D represents the change in fluid phase concentration of the same 20% (v/v) diacetone alcohol in water occurring during the same fluid volume change. In this case, complete evaporation can occur in approximately 75 time units. Comparatively, the 20% (v/v) diacetone alcohol in water can be engaged with a population of microorganisms for a greater duration of time than the conventional antimicrobial composition without reapplication of an additional amount because evaporation occurs at a slower rate as shown by Table 3.

[5] = tested on: Staphylococcus aureus (ATCC 6538); experiment: Potentiation Assay (non-evaporative vs evaporative procedure); type: cell-based; conditions: for evaporative potentiation of antimicrobial efficacy: evaporative vs non-evaporative procedure, concentrations tested in water; for Evaporated Log 10 Reduction: evaporated in centrifuge 60 minutes; for Non-evaporated Log 10 Reduction: set 60 minutes
Description: Now referring primarily to Table 5 and FIG. […] The non-evaporative and evaporative procedures included 50 μL of an overnight Staphylococcus aureus (ATCC 6538, ˜10^9 CFU/mL) culture added to each 2 mL sterile plastic vial with a conical bottom and dried without capping in a centrifuge for 30 minutes. One hundred microliters of the solution being tested was added to each vial (as triplicate vials) either let set for 60 minutes (non-evaporative) or evaporated in a centrifuge for 60 minutes (evaporative), with time to evaporate being determined by each DAA mixtures own evaporative characteristic. To the non-evaporated vials, 400 μL Mueller Hinton Broth (MHB) was added to the vial and 100 μL was plated onto Nutrient agar (NA). To the evaporated vials, 500 μL of MHB was added and 100 μL was plated onto NA. Plates were incubated overnight at ˜37° C. and counted (the “Potentiation Assay”).

[6] = Table 1; cited from earlier work
[7] = tested on: Staphylococcus aureus (ATCC 6538), Pseudomonas aeruginosa (ATCC 9027), Salmonella Choleraesuis (ATCC 13312); experiment: Coverslip assay: composition applied to dried bacteria on glass coverslips, evaporated to dryness, nutrient agar contact; type: cell-based
Description: These bacteria cultures can be diluted to obtain concentrations of about 10^7 through about 10^3 CFU/ml and 10 μl of each dilution can be spread onto a glass coverslip with a sterile loop and allowed to dry. Afterwards, the coverslips containing 10^5 to 10^2 CFU can be placed inside of petri dish. Different concentrations of the amount of substance can be applied to the cover slips with a nebulizer as described by Germicidal Spray Products as Disinfectants, Method 961.02, AOAC International (2004). As a non-limiting example, isopropyl alcohol (IPA) and diacetone alcohol (DAA) can be assessed as above described by obtaining aqueous mixtures of IPA at concentrations of 55% w/w, 20% w/w, and 5% w/w. […] A nutrient agar lightly pressed against the coverslips allows contact of microorganisms on the coverslips with the nutrient agar. The nutrient agar can be incubated for 48 hours at 37° C. in contact with the coverslips and then observed for microbial reproduction in the region where the coverslips contact the nutrient agar. Untreated coverslips can be used as a positive control. Particular examples of utilizing the method are set forth below.

[8] = Evaporation of fluid volume over time (FIG. 2); type: physicochemical; conditions: 70% (v/v) in water
Excerpt: as §1
By comparison, Line C represents the change in fluid volume of a 20% (v/v) solution of diacetone alcohol in water, while line D represents the change in concentration of diacetone alcohol in water. As to this non-limiting example, if 10% diacetone alcohol (v/v) is the minimum concentration to provide an antimicrobial composition, then the entire 75 time units provide an antimicrobial composition because the concentration of diacetone alcohol increases over the 75 time units in accordance with embodiments of differential evaporation potentiated antimicrobial compositions.

[9] = 5% v/v active component, 95% water
[10] = 10% v/v active component, 90% water
[11] = 15% v/v active component, 85% water
[12] = 20% v/v active component, 80% water
[13] = 70% v/v active component, 30% water

Compound: CC(C)=O [Acetone, reference compound]
FP [1]: −18 °C
Log P [2]: −0.23
Relative Evaporation Rates [3]: 11.60

Relative Evaporation Rates (estimated) ([4]; 10% (v/v)): 0.33
Relative Evaporation Rates (estimated) ([4]; 20% (v/v)): 0.30
Compound: CCCCOCCO [EGMBE, ethylene glycol monobutyl ether]
evaporative potentiation of antimicrobial efficacy [5]: can be potentiated by evaporation
Relative Evaporation Rates [3]: 0.06

Compound: COCCOC(C)=O [EGMEA, ethylene glycol monomethyl ether acetate]
Evaporated Log 10 Reduction [5, 9]: ---0--- (denotes a plate where the numbers of colonies represented more than 50% of the number of colonies counted in the corresponding positive control plate, representing no significant reduction in the population of viable microorganisms (0 to 1 Log10 reduction).)
Non-evaporated Log 10 Reduction [5, 9]: ---0--- (denotes a plate where the numbers of colonies represented more than 50% of the number of colonies counted in the corresponding positive control plate, representing no significant reduction in the population of viable microorganisms (0 to 1 Log10 reduction).)
Evaporated Log 10 Reduction [5, 10]: ---0--- (denotes a plate where the numbers of colonies represented more than 50% of the number of colonies counted in the corresponding positive control plate, representing no significant reduction in the population of viable microorganisms (0 to 1 Log10 reduction).)
Non-evaporated Log 10 Reduction [5, 10]: ---0--- (denotes a plate where the numbers of colonies represented more than 50% of the number of colonies counted in the corresponding positive control plate, representing no significant reduction in the population of viable microorganisms (0 to 1 Log10 reduction).)
Evaporated Log 10 Reduction [5, 11]: XX (denotes a plate where the number of colonies represented less than 10% of the number of colonies counted in the corresponding positive control plate, representing a significant reduction of the number of microorganisms (>3 Log10 reduction).)
Non-evaporated Log 10 Reduction [5, 11]: ---0--- (denotes a plate where the numbers of colonies represented more than 50% of the number of colonies counted in the corresponding positive control plate, representing no significant reduction in the population of viable microorganisms (0 to 1 Log10 reduction).)
evaporative potentiation of antimicrobial efficacy [5]: can be potentiated by evaporation

Compound: CCO [Ethanol, reference compound]
FP [1]: 22 °C
Azeotrope with Water % v/v [6]: 94% v/v
Azeotrope with Water % w/w [6]: 95% w/w

complete evaporation [8]: about 15 time units
Compound: CC(C)O [Isopropanol, 2-propanol, reference compound]
Evaporated Log 10 Reduction [5, 10]: ---0--- (denotes a plate where the numbers of colonies represented more than 50% of the number of colonies counted in the corresponding positive control plate, representing no significant reduction in the population of viable microorganisms (0 to 1 Log10 reduction).)
Non-evaporated Log 10 Reduction [5, 10]: ---0--- (denotes a plate where the numbers of colonies represented more than 50% of the number of colonies counted in the corresponding positive control plate, representing no significant reduction in the population of viable microorganisms (0 to 1 Log10 reduction).)
Evaporated Log 10 Reduction [5, 12]: ---0--- (denotes a plate where the numbers of colonies represented more than 50% of the number of colonies counted in the corresponding positive control plate, representing no significant reduction in the population of viable microorganisms (0 to 1 Log10 reduction).)
Non-evaporated Log 10 Reduction [5, 12]: XXX (denotes a plate in which zero colonies were present, representing complete reduction of the number of microorganisms (>5 Log10 reduction).)
Evaporated Log 10 Reduction [5, 13]: XXX (denotes a plate in which zero colonies were present, representing complete reduction of the number of microorganisms (>5 Log10 reduction).)
Non-evaporated Log 10 Reduction [5, 13]: XXX (denotes a plate in which zero colonies were present, representing complete reduction of the number of microorganisms (>5 Log10 reduction).)
evaporative potentiation of antimicrobial efficacy [5]: cannot be potentiated
FP [1]: 21 °C
Evaporated from coverslip ([7]; 6% v/v active component, 94% water): ---o---
Evaporated from coverslip ([7]; 25% v/v active component, 75% water): ---o---
Evaporated from coverslip [7, 13]: X (denotes a plate where the number of colonies represented less than 50% of the number of colonies counted in the corresponding positive control plate, representing reduction of the number of microorganisms (<2 Log10 reduction).)
reduction of the population of viable microorganisms ([7]; concentrations of 6% and 25% in water): did not reduce the population of viable microorganisms
Azeotrope with Water % v/v [6]: 83% v/v
Azeotrope with Water % w/w [6]: 87% w/w

Compound: CCC(C)=NO [MEKO, 2-butanone oxime]
Evaporated Log 10 Reduction [5, 10]: XXX (denotes a plate in which zero colonies were present, representing complete reduction of the number of microorganisms (>5 Log10 reduction).)
Non-evaporated Log 10 Reduction [5, 10]: XXX (denotes a plate in which zero colonies were present, representing complete reduction of the number of microorganisms (>5 Log10 reduction).)
Evaporated Log 10 Reduction [5, 11]: XXX (denotes a plate in which zero colonies were present, representing complete reduction of the number of microorganisms (>5 Log10 reduction).)
Non-evaporated Log 10 Reduction [5, 11]: XXX (denotes a plate in which zero colonies were present, representing complete reduction of the number of microorganisms (>5 Log10 reduction).)
evaporative potentiation of antimicrobial efficacy [5]: can be potentiated by evaporation

Compound: CO [Methanol]
FP [1]: 11 °C

Compound: O [water]
Relative Evaporation Rates [3]: 0.36

Source: US9474814B2, “Differential evaporation potentiated disinfectant system” (XY, LLC, priority 2007, dated 2016)
